# In PMC5797931 (Frontiers in Pharmacology, 2018):
# Key:
# [1] = human, in vivo; cited from earlier work
# [2] = in vivo; set-up: species or system piglets (Landrace × large white); conditions: male, Landrace × large white (Seghers Hybrid), pig, 120 ug
# Procedure: The current study was approved by the ethical committee of the Faculties of Veterinary Medicine and Bioscience Engineering of Ghent University (EC2014/184). Care and use of animals was in full compliance with the national (Belgian Royal Decree, [2013]) and European legislation (Anonymous, [2010]). […] Opti®, 6 months: […], Leuven, Belgium) and drinking water. Natural light was provided by translucent windows and the stable temperature was 23.2 ± 0.56°C. Higher temperatures were obtained in the rescue decks through heating lamps. In all age groups, a double lumen catheter was placed in the jugular vein according to Gasthuys et al. ([2017b]). After surgery, the piglets were housed individually to avoid displacement of the catheters. During single housing, a cotton towel was added to the decks and stables to mimic the smell of the other piglets. During the experiments, the stables were enriched with hanging chains, rubber toys and balls of different sizes. The environmental enrichment was rotated daily. […] Afterwards, the snout was closed during 30 s to ensure full dissolution of the lyophilisate. […] The CT-scans were processed using VGStudioMax (Volume Graphics GmbH, Heidelberg, Germany) and the body surface area (BSA) was determined after visualization and selection of the body surface in 3D (UGCT-Department of Physics and Astronomy, Ghent University, Ghent, Belgium). The GFR was determined as the clearance of the exogenous marker exo-iohexol (Gasthuys et al., [2017a]). […] Desmopressin plasma concentrations were determined at Aarhus University Hospital (Aarhus, Denmark) using a validated radioimmunoassay method as described by Emmeluth et al. […] Subsequently, based on a visual exploration of the plasma concentration-time profiles obtained in the growing piglets, a two-compartmental disposition model and a dual-input were evaluated to describe the absorption of the sublingual desmopressin lyophilisate. […]
smiles,measurement,setting,value
"NC(=O)CC[C@@H]1NC(=O)[C@H](Cc2ccccc2)NC(=O)[C@H](Cc2ccc(O)cc2)NC(=O)CCSSC[C@@H](C(=O)N2CCC[C@H]2C(=O)N[C@H](CCCN=C(N)N)C(=O)NCC(N)=O)NC(=O)[C@H](CC(N)=O)NC1=O [desmopressin, 1-desamino-8-D-arginine vasopressin]","F, absolute oral bioavailability",[1],< 1%
same,CL/F,[2],6580 mL/min
same,Vd/F,[2],131 L
same,Cmax,[2]; po,~0.25 ng/mL
